Test results published in US20220306695A1, “COMPSTATIN ANALOGUES AND THEIR MEDICAL USES” (priority 2019, published 2022).
Like-named read-outs stand apart in the source and are kept apart here. Starred links: 1 amine or outer side, 2 acyl side, 3 side chain; linkers in the order of their positions; H or OH if unused. Positions of bridges follow the written chain, without caps; N, C: chain ends. Non-standard residues stand in square brackets, D forms with d. Residues, ends and D or L forms follow the SMILES beside them. Groups on a side chain read outwards from the residue. *: point of attachment. Trp(1-Me) = Cn1cc(C[C@H](N)C(=O)O)c2ccccc21; Abu(4-yl) = O=C([C@H](CC[*:3])N[*:1])[*:2]; C18 diacid = O=C(O)CCCCCCCCCCCCCCCCC(=O)*; γGlu = O=C(O)[C@H](CCC(=O)[*:2])N[*:1]; AEEA = NCCOCCOCC(=O)O; Sar = CNCC(=O)O

Key:
Human C3 [1] = biological target: T1, Human C3 (Homo sapiens, UniProt P01024); test: Affinity measurement by surface plasmon resonance (SPR) with immobilized C3; type: binding; conditions: Table 7; immobilized C3, 25° C., pH 7.4
T1 construct: purchased Complement tech A1 13c (so in the source)

[2] = test system: classical complement pathway; test: In vitro haemolysis assay (inhibition of classical complement pathway); type: cell-based, human; conditions: Table 3; human serum, sensitized sheep red blood cells; read-out: IC50[nM], in vitro analysis of inhibition of hemolysis
In short: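 Serially diluted compound (9 points) was preincubated 15 min at room temperature with diluted human serum, titrated per batch to give 70-90% maximal haemolysis, in Tris/casein buffer pH 7.4 with Mg2+/Ca2+. Antibody-sensitized sheep erythrocytes were then added for 30 min at 37° C, and the reaction was stopped with EDTA. Haemolysis was read at A405, with IC50 from 4PL fit.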

in vivo = test: in vivo; set-up: species or system Cynomolgus monkeys (Macaca fascicularis); conditions: male, cynomolgus monkey, sc, 1840 nmol/kg; for half-life: t½
In short: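 Healthy male cynomolgus monkeys dosed once subcutaneously at 1840 nmol/kg in 20 mM phosphate pH 7.5 with mannitol. Serum sampled pre-dose to 120 h and total drug measured by SPE and LC-MS/MS. Terminal half-life calculated non-compartmentally as ln(2)/λz from the terminal log-linear phase.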

[3] = Solubility test at 10 mg/mL (visual inspection and light scattering); type: physicochemical
[4] = type: physicochemical; conditions: 50 mg/mL peptide; for Covalent oligomer content after 14 days 40° C. (%), F1 / Purity after 14 days 40° C. (%), F1: F1: 20 mM phosphate pH 5.5; for Covalent oligomer content after 14 days 40° C. (%), F1 / Covalent oligomer content after 14 days 40° C. (%), F2: denaturing SEC; for Purity after 14 days 40° C. (%), F1 / Purity after 14 days 40° C. (%), F2 / Purity after 14 days 40° C. (%), F3: normalized purity (HPLC)
In short: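 Compstatin analogues with cystathionine or disulfide bridge held at 50 mg/mL in 20 mM phosphate pH 5.5, 6.5 or 7.5 and stored 14 days at 40 °C. At 0, 7 and 14 days, samples diluted to 2 mg/mL; purity by reverse-phase HPLC (220 nm) and covalent oligomer content by denaturing SEC (215 nm), from integrated chromatograms.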

Human C3 [5] = biological target: T2, Human C3 (human, UniProt P01024 23-1663); test: cell-based or functional assay
T2 sequence (P01024 23-1663 limits assumed): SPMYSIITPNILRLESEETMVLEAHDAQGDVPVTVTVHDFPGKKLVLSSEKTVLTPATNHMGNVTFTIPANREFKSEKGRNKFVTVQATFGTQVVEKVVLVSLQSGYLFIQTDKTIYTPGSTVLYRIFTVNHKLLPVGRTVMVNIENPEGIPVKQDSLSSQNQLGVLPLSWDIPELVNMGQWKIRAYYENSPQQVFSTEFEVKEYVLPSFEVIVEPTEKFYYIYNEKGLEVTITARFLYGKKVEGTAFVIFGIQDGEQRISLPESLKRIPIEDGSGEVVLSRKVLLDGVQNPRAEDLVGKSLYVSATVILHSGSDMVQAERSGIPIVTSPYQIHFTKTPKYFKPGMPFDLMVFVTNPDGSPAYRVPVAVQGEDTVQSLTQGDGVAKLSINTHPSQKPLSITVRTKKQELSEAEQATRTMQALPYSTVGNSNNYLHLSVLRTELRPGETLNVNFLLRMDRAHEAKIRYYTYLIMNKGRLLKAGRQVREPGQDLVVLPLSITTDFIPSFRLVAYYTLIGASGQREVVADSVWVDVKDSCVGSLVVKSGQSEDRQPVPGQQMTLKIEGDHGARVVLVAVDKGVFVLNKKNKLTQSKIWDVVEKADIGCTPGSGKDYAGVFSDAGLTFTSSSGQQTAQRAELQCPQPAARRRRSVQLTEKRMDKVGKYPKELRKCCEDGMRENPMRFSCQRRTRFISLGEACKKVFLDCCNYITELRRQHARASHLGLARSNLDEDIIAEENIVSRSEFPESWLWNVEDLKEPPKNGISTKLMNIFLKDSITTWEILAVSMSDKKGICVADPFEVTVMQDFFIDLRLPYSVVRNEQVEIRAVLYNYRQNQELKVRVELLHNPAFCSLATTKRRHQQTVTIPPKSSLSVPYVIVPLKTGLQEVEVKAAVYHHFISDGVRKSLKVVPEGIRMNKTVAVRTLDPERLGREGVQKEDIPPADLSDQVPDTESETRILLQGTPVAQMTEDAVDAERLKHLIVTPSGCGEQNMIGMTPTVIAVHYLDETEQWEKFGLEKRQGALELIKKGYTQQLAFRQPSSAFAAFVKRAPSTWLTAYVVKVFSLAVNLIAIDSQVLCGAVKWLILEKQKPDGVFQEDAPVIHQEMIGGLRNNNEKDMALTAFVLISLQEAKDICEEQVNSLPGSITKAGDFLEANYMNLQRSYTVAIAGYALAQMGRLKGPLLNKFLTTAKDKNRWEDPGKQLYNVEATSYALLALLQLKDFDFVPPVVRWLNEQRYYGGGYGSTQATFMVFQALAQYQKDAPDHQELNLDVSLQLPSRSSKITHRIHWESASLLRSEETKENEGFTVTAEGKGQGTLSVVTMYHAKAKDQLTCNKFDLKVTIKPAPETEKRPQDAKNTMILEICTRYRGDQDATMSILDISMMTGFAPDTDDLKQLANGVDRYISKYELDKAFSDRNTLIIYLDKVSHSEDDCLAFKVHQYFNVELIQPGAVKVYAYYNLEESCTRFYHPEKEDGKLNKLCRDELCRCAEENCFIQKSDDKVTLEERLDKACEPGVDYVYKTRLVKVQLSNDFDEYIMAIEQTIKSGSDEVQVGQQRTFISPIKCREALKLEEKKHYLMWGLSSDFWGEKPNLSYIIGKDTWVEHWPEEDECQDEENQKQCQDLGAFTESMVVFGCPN

Human C3 [6] = biological target: T2, Human C3; test: cell-based or functional assay; remark: listed apart in the source

CC[C@H](C)[C@@H]1NC(=O)[C@@H](NC(=O)[C@H](Cc2ccc(O)cc2)NC(=O)[C@H](CCC(=O)O)NC(=O)[C@H](CO)NC(C)=O)CSSC[C@@H](C(=O)N(C)CC(=O)N[C@@H](CCC(=O)O)C(=O)NCC(=O)N[C@@H](C)C(=O)N[C@@H](CCCCNC(=O)COCCOCCNC(=O)CC[C@H](NC(=O)COCCOCCNC(=O)CNC(=O)CC[C@H](NC(=O)CCCCCCCCCCCCCCCCC(=O)O)C(=O)O)C(=O)O)C(N)=O)NC(=O)[C@H](CCCNC(=N)N)NC(=O)[C@H](Cc2c[nH]cn2)NC(=O)[C@H](CCC(=O)O)NC(=O)CNC(=O)[C@H](Cc2c[nH]c3ccccc23)NC(=O)[C@H](CC(=O)O)NC(=O)[C@H](CCC(N)=O)NC(=O)[C@H](Cc2cn(C)c3ccccc23)NC1=O [Compound 118] (Ac-SEYCI[Trp(1-Me)]QDWGEHRC[Sar]EGAK([AEEA-γGlu-AEEA-Gly-γGlu-C18 diacid])-NH2; disulfide 4-14)
Kd (Human C3 [1]): 11 nM | IC50 [2]: < 100 nM | t½ (in vivo): 155 h | half-life (in vivo): 78.7 h | Solubility, Condition 1 Acetate pH 4 ([3]; 10 mg/mL compound in 100 mM acetate pH 4): − (denotes lack of solubility at the given condition, as UV absorbance at 340 nm exceeds 0.1 AU and/or it is visibly turbid or contains particles.) | Solubility, Condition 2 Acetate pH 5 ([3]; 10 mg/mL compound in 100 mM acetate pH 5): + (denotes solubility at the given condition, as determined by UV absorbance being less than 0.1 AU at 340 nm and the sample being clear when manually inspected.) | Solubility, Condition 3 Phosphate pH 6 ([3]; 10 mg/mL compound in 100 mM phosphate pH 6): + (denotes solubility at the given condition, as determined by UV absorbance being less than 0.1 AU at 340 nm and the sample being clear when manually inspected.) | Solubility, Condition 4 Phosphate pH 7 ([3]; 10 mg/mL compound in 100 mM phosphate pH 7): + (denotes solubility at the given condition, as determined by UV absorbance being less than 0.1 AU at 340 nm and the sample being clear when manually inspected.) | Solubility, Condition 5 Phosphate pH 7.5 ([3]; 10 mg/mL compound in 100 mM phosphate pH 7.5): + (denotes solubility at the given condition, as determined by UV absorbance being less than 0.1 AU at 340 nm and the sample being clear when manually inspected.)

CC[C@H](C)[C@@H]1NC(=O)[C@@H](NC(=O)[C@H](Cc2ccccc2)NC(=O)[C@H](CCC(=O)O)NC(=O)[C@H](CO)NC(C)=O)CSSC[C@@H](C(=O)N(C)CC(=O)N[C@@H](CCC(=O)O)C(=O)NCC(=O)N[C@@H](CCC(=O)O)C(=O)NCCOCCOCC(=O)NCCOCCOCC(=O)N[C@@H](CCCCNC(=O)CC[C@H](NC(=O)CNC(=O)CC[C@H](NC(=O)CCCCCCCCCCCCCCCCC(=O)O)C(=O)O)C(=O)O)C(N)=O)NC(=O)[C@H](CCCNC(=N)N)NC(=O)[C@H](Cc2c[nH]cn2)NC(=O)[C@H](CCC(=O)O)NC(=O)CNC(=O)[C@H](Cc2c[nH]c3ccccc23)NC(=O)[C@H](CC(=O)O)NC(=O)[C@H](CCC(N)=O)NC(=O)[C@H](Cc2cn(C)c3ccccc23)NC1=O [Compound 123] (Ac-SEFCI[Trp(1-Me)]QDWGEHRC[Sar]EGE[AEEA][AEEA]K([γGlu-Gly-γGlu-C18 diacid])-NH2; disulfide 4-14)
Kd (Human C3 [1]): 11 nM | IC50 [2]: < 100 nM | half-life (in vivo): 105 h | Covalent oligomer content after 14 days 40° C. (%), F1 [4]: 52% | Purity after 14 days 40° C. (%), F1 [4]: 56% | Covalent oligomer content after 14 days 40° C. (%), F2 ([4]; F2: 20 mM phosphate pH 6.5): 48% | Purity after 14 days 40° C. (%), F2 ([4]; F2: 20 mM phosphate pH 6.5): 54% | Covalent oligomer content after 14 days 40° C. (%), F2 ([4]; F3: 20 mM phosphate pH 7.5): 45% | Purity after 14 days 40° C. (%), F3 ([4]; F3: 20 mM phosphate pH 7.5): 54%

CC[C@H](C)[C@@H]1NC(=O)[C@@H](NC(=O)[C@H](Cc2ccccc2)NC(=O)[C@H](CCC(=O)O)NC(=O)[C@H](CO)NC(C)=O)CSCC[C@@H](C(=O)N[C@H](C(=O)N[C@@H](CCC(=O)O)C(=O)NCC(=O)N[C@@H](CCC(=O)O)C(=O)NCCOCCOCC(=O)N[C@@H](CCC(=O)O)C(=O)N[C@@H](CO)C(=O)N[C@@H](CCCCNC(=O)CC[C@H](NC(=O)CCCCCCCCCCCCCCCCC(=O)O)C(=O)O)C(N)=O)[C@@H](C)O)NC(=O)[C@H](CCCNC(=N)N)NC(=O)[C@H](Cc2c[nH]cn2)NC(=O)[C@H](CCC(=O)O)NC(=O)CNC(=O)[C@H](Cc2c[nH]c3ccccc23)NC(=O)[C@H](CC(=O)O)NC(=O)[C@H](CCC(N)=O)NC(=O)[C@H](Cc2cn(C)c3ccccc23)NC1=O [Compound 148, Ac-SEFA(1)I[1-Me-Trp]QDWGEHRhC(1)TEGE[Peg3]ES-K([17-carboxy-heptadecanoyl][γGlu])-NH2] (Ac-SEFCI[Trp(1-Me)]QDWGEHR[Abu(4-yl)]TEGE[AEEA]ESK([γGlu-C18 diacid])-NH2; thioether 4-14)
Kd (Human C3 [1]): 3.4 nM | IC50 [2]: < 100 nM | half-life (in vivo): 129 h | Covalent oligomer content after 14 days 40° C. (%), F1 [4]: 0.7% | Purity after 14 days 40° C. (%), F1 [4]: 93% | Covalent oligomer content after 14 days 40° C. (%), F2 ([4]; F2: 20 mM phosphate pH 6.5): 0.0% | Purity after 14 days 40° C. (%), F2 ([4]; F2: 20 mM phosphate pH 6.5): 97% | Covalent oligomer content after 14 days 40° C. (%), F2 ([4]; F3: 20 mM phosphate pH 7.5): 0.1% | Purity after 14 days 40° C. (%), F3 ([4]; F3: 20 mM phosphate pH 7.5): 97%

B1: Compound 6 (peptide)
peptide: Ac-ICIWQDWGSHRCT-NH2
modifications: disulfide 2-12
SMILES: CC[C@H](C)[C@H](NC(C)=O)C(=O)N[C@H]1CSSC[C@@H](C(=O)N[C@H](C(N)=O)[C@@H](C)O)NC(=O)[C@H](CCCNC(=N)N)NC(=O)[C@H](Cc2c[nH]cn2)NC(=O)[C@H](CO)NC(=O)CNC(=O)[C@H](Cc2c[nH]c3ccccc23)NC(=O)[C@H](CC(=O)O)NC(=O)[C@H](CCC(N)=O)NC(=O)[C@H](Cc2c[nH]c3ccccc23)NC(=O)[C@H]([C@@H](C)CC)NC1=O
CP hemolysis IC50 (Human C3 [5]): 140 nM | IC50[nM], inhibition of hemolysis (Human C3 [6]): < 250 nM

B2: Compound B (peptide)
peptide: Ac-ICVWQDWGSHRCT-NH2
modifications: disulfide 2-12
SMILES: CC[C@H](C)[C@H](NC(C)=O)C(=O)N[C@H]1CSSC[C@@H](C(=O)N[C@H](C(N)=O)[C@@H](C)O)NC(=O)[C@H](CCCNC(=N)N)NC(=O)[C@H](Cc2c[nH]cn2)NC(=O)[C@H](CO)NC(=O)CNC(=O)[C@H](Cc2c[nH]c3ccccc23)NC(=O)[C@H](CC(=O)O)NC(=O)[C@H](CCC(N)=O)NC(=O)[C@H](Cc2c[nH]c3ccccc23)NC(=O)[C@H](C(C)C)NC1=O
CP hemolysis IC50 (Human C3 [5]): 360 nM

B3: Compound C (peptide)
peptide: Ac-ESSAICVWQDWGEHRCT-NH2
modifications: disulfide 6-16
SMILES: CC[C@H](C)[C@H](NC(=O)[C@H](C)NC(=O)[C@H](CO)NC(=O)[C@H](CO)NC(=O)[C@H](CCC(=O)O)NC(C)=O)C(=O)N[C@H]1CSSC[C@@H](C(=O)N[C@H](C(N)=O)[C@@H](C)O)NC(=O)[C@H](CCCNC(=N)N)NC(=O)[C@H](Cc2c[nH]cn2)NC(=O)[C@H](CCC(=O)O)NC(=O)CNC(=O)[C@H](Cc2c[nH]c3ccccc23)NC(=O)[C@H](CC(=O)O)NC(=O)[C@H](CCC(N)=O)NC(=O)[C@H](Cc2c[nH]c3ccccc23)NC(=O)[C@H](C(C)C)NC1=O
CP hemolysis IC50 (Human C3 [5]): 300 nM

B4: Compound E (peptide)
peptide: Ac-ICVWQDWGAHSCT-NH2
modifications: disulfide 2-12
SMILES: CC[C@H](C)[C@H](NC(C)=O)C(=O)N[C@H]1CSSC[C@@H](C(=O)N[C@H](C(N)=O)[C@@H](C)O)NC(=O)[C@H](CO)NC(=O)[C@H](Cc2c[nH]cn2)NC(=O)[C@H](C)NC(=O)CNC(=O)[C@H](Cc2c[nH]c3ccccc23)NC(=O)[C@H](CC(=O)O)NC(=O)[C@H](CCC(N)=O)NC(=O)[C@H](Cc2c[nH]c3ccccc23)NC(=O)[C@H](C(C)C)NC1=O
CP hemolysis IC50 (Human C3 [5]): > 1000 nM

B5: Compound F (peptide)
peptide: Ac-ICVWQDWGEHSCT-NH2
modifications: disulfide 2-12
SMILES: CC[C@H](C)[C@H](NC(C)=O)C(=O)N[C@H]1CSSC[C@@H](C(=O)N[C@H](C(N)=O)[C@@H](C)O)NC(=O)[C@H](CO)NC(=O)[C@H](Cc2c[nH]cn2)NC(=O)[C@H](CCC(=O)O)NC(=O)CNC(=O)[C@H](Cc2c[nH]c3ccccc23)NC(=O)[C@H](CC(=O)O)NC(=O)[C@H](CCC(N)=O)NC(=O)[C@H](Cc2c[nH]c3ccccc23)NC(=O)[C@H](C(C)C)NC1=O
CP hemolysis IC50 (Human C3 [5]): 540 nM

B6: Compound J (peptide)
peptide: Ac-ICVWQDWGEHRCTEGE-NH2
modifications: disulfide 2-12
SMILES: CC[C@H](C)[C@H](NC(C)=O)C(=O)N[C@H]1CSSC[C@@H](C(=O)N[C@H](C(=O)N[C@@H](CCC(=O)O)C(=O)NCC(=O)N[C@@H](CCC(=O)O)C(N)=O)[C@@H](C)O)NC(=O)[C@H](CCCNC(=N)N)NC(=O)[C@H](Cc2c[nH]cn2)NC(=O)[C@H](CCC(=O)O)NC(=O)CNC(=O)[C@H](Cc2c[nH]c3ccccc23)NC(=O)[C@H](CC(=O)O)NC(=O)[C@H](CCC(N)=O)NC(=O)[C@H](Cc2c[nH]c3ccccc23)NC(=O)[C@H](C(C)C)NC1=O
CP hemolysis IC50 (Human C3 [5]): 240 nM
